# Measured values as given in US8846746B2, “Pyrazole compound and pharmaceutical use thereof” (Japan Tobacco Inc., priority 2011, dated 2014).
# Target: human SGLT1 (Homo sapiens (Human), UniProt P13866)
# Experiment: SGLT1 inhibitory activity: 14C-AMG uptake into CHO-K1 cell line stably expressing human SGLT1
# Assay type: cell-based
# Conditions: 14C-AMG uptake, CHO-K1 cells stably expressing human SGLT1
# Summary of the method: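 CHO-K1 cells stably expressing human SGLT1 were pre-incubated 20 min in Na(−) buffer (pH 7.4). Test compound in Na(+) buffer with BSA was added with ¹⁴C-AMG (8 kBq) plus unlabelled AMG (2 mM in the added solution) for 1 h at 37 °C.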
# human SGLT1, sequence (P13866 whole entry): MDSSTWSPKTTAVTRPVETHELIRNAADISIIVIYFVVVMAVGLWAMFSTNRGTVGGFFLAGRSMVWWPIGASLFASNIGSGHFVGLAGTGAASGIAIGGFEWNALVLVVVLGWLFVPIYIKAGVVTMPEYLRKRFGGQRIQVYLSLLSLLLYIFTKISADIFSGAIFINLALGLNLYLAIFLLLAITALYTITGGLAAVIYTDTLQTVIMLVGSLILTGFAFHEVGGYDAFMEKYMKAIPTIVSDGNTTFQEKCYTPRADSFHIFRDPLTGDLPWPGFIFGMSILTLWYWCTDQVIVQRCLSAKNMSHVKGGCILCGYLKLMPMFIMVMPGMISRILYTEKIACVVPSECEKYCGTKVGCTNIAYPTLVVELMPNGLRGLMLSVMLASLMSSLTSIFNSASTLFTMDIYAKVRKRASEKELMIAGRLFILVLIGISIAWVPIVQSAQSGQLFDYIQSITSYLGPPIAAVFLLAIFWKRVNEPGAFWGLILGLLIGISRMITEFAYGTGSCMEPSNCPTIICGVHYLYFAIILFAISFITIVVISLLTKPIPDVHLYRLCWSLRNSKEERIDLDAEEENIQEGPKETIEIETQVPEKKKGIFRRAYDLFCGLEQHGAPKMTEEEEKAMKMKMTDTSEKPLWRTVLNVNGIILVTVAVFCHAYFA
row,SMILES,IC50
1,O=C1C[C@H](C(=O)Nc2cc(-c3cccc(COC(F)(F)F)c3)n(-c3ccccc3)n2)CN1 [Example 399],19 nM
2,CCCc1cccc(-c2cc(NC(=O)[C@@H]3CNC(=O)C3)nn2-c2cccc(OC(F)(F)F)c2)c1 [Example 400],15 nM
3,CCCc1cccc(-c2cc(NC(=O)[C@@H]3CNC(=O)C3)nn2-c2cccc(C(F)(F)F)c2)c1 [Example 401],13 nM
4,CCCc1cccc(-c2cc(NC(=O)[C@@H]3CNC(=O)C3)nn2-c2ccc(C(F)(F)F)cc2)c1 [Example 402],17 nM
5,CCCc1cccc(-c2cc(NC(=O)[C@@H]3CNC(=O)C3)nn2-c2ccc(CC)cc2)c1 [Example 403],12 nM
6,CCCc1cccc(-c2cc(NC(=O)[C@@H]3CNC(=O)C3)nn2-c2cccc(OCCOC)c2)c1 [Example 406],7.85 nM
7,CCCc1cccc(-c2cc(NC(=O)[C@@H]3CNC(=O)C3)nn2-c2cccc(OCCOCc3ccccc3)c2)c1 [Example 407],7.6 nM
8,CCCc1cccc(-c2cc(NC(=O)[C@@H]3CNC(=O)C3)nn2-c2cccc(OCCO)c2)c1 [Example 408],8 nM
9,O=C1C[C@H](C(=O)Nc2cc(-c3cccc(COC(C(F)(F)F)C(F)(F)F)c3)n(-c3ccc(F)cc3)n2)CN1 [Example 409],12 nM
10,Cc1cc(CO[C@H](C)C(F)(F)F)cc(-c2cc(NC(=O)[C@@H]3CNC(=O)C3)nn2-c2ccccc2)c1 [Example 410],22 nM
11,Cc1cc(-c2cc(NC(=O)[C@@H]3CNC(=O)C3)nn2-c2ccccc2)cc(C(C)(C)C)c1 [Example 411],4.4 nM
12,CCCc1cccc(-c2cc(NC(=O)[C@@H]3CNC(=O)C3)nn2-c2cccc(OC3CCC3)c2)c1 [Example 412],10.9 nM
13,CCCc1cccc(-c2cc(NC(=O)[C@@H]3CNC(=O)C3)nn2-c2ccc(F)c(OCCOC)c2)c1 [Example 414],11.4 nM
14,CCCc1cccc(-c2cc(NC(=O)[C@@H]3CNC(=O)C3)nn2-c2ccc(F)c(OCCO)c2)c1 [Example 415],13 nM
15,COc1cc(-n2nc(NC(=O)[C@@H]3CNC(=O)C3)cc2-c2cccc(COCC(F)(F)F)c2)ccc1F [Example 416],15 nM
16,CCOc1cc(-n2nc(NC(=O)[C@@H]3CNC(=O)C3)cc2-c2cccc(COCC(F)(F)F)c2)ccc1F [Example 417],4.3 nM
17,CC(C)Oc1cc(-n2nc(NC(=O)[C@@H]3CNC(=O)C3)cc2-c2cccc(COCC(F)(F)F)c2)ccc1F [Example 418],2.35 nM
18,CCCOc1cc(-n2nc(NC(=O)[C@@H]3CNC(=O)C3)cc2-c2cccc(COCC(F)(F)F)c2)ccc1F [Example 419],4.75 nM
19,COc1cc(-n2nc(NC(=O)[C@@H]3CNC(=O)C3)cc2-c2cccc(OC(F)(F)F)c2)ccc1F [Example 420],47 nM

# Further lines, results first:
row,IC50,SMILES
1,20 nM,CCOc1cc(-n2nc(NC(=O)[C@@H]3CNC(=O)C3)cc2-c2cccc(OC(F)(F)F)c2)ccc1F [Example 421]
2,14 nM,CC(C)Oc1cc(-n2nc(NC(=O)[C@@H]3CNC(=O)C3)cc2-c2cccc(OC(F)(F)F)c2)ccc1F [Example 422]
3,16 nM,CCCOc1cc(-n2nc(NC(=O)[C@@H]3CNC(=O)C3)cc2-c2cccc(OC(F)(F)F)c2)ccc1F [Example 423]
4,3.45 nM,CCCc1cccc(-c2cc(NC(=O)[C@@H]3CNC(=O)C3)nn2-c2cccc(OC(C)(C)C)c2)c1 [Example 435]
5,19 nM,O=C1C[C@H](C(=O)Nc2cc(-c3cccc(OC(F)(F)F)c3)n(-c3cccc(OCc4ccccc4)c3)n2)CN1 [Example 436]
6,3.1 nM,C[C@@H](OCc1cccc(-c2cc(NC(=O)[C@@H]3CNC(=O)C3)nn2-c2cccc(OCc3ccccc3)c2)c1)C(F)(F)F [Example 438]
7,9 nM,C[C@@H](OCc1cccc(-c2cc(NC(=O)[C@@H]3CNC(=O)C3)nn2-c2cccc(O)c2)c1)C(F)(F)F [Example 441]
8,15 nM,COc1cccc(-n2nc(NC(=O)[C@@H]3CNC(=O)C3)cc2-c2cccc(OC(F)(F)F)c2)c1 [Example 442]
9,11 nM,CCOc1cccc(-n2nc(NC(=O)[C@@H]3CNC(=O)C3)cc2-c2cccc(OC(F)(F)F)c2)c1 [Example 443]
10,10 nM,CCCOc1cccc(-n2nc(NC(=O)[C@@H]3CNC(=O)C3)cc2-c2cccc(OC(F)(F)F)c2)c1 [Example 444]
11,6.7 nM,CC(C)Oc1cccc(-n2nc(NC(=O)[C@@H]3CNC(=O)C3)cc2-c2cccc(OC(F)(F)F)c2)c1 [Example 445]
12,5.6 nM,COc1cccc(-n2nc(NC(=O)[C@@H]3CNC(=O)C3)cc2-c2cccc(COCC(F)(F)F)c2)c1 [Example 446]
13,4.7 nM,CCOc1cccc(-n2nc(NC(=O)[C@@H]3CNC(=O)C3)cc2-c2cccc(COCC(F)(F)F)c2)c1 [Example 447]
14,4.3 nM,CCCOc1cccc(-n2nc(NC(=O)[C@@H]3CNC(=O)C3)cc2-c2cccc(COCC(F)(F)F)c2)c1 [Example 448]
15,2.3 nM,CC(C)Oc1cccc(-n2nc(NC(=O)[C@@H]3CNC(=O)C3)cc2-c2cccc(COCC(F)(F)F)c2)c1 [Example 449]
16,8.1 nM,COCCOc1cccc(-n2nc(NC(=O)[C@@H]3CNC(=O)C3)cc2-c2cccc(COCC(F)(F)F)c2)c1 [Example 450]
17,3.3 nM,COc1cccc(-n2nc(NC(=O)[C@@H]3CNC(=O)C3)cc2-c2cccc(CO[C@H](C)C(F)(F)F)c2)c1 [Example 451]
18,1.7 nM,CCOc1cccc(-n2nc(NC(=O)[C@@H]3CNC(=O)C3)cc2-c2cccc(CO[C@H](C)C(F)(F)F)c2)c1 [Example 452]
19,1.7 nM,CCCOc1cccc(-n2nc(NC(=O)[C@@H]3CNC(=O)C3)cc2-c2cccc(CO[C@H](C)C(F)(F)F)c2)c1 [Example 453]
20,2 nM,CC(C)Oc1cccc(-n2nc(NC(=O)[C@@H]3CNC(=O)C3)cc2-c2cccc(CO[C@H](C)C(F)(F)F)c2)c1 [Example 454]

# Same assay, conditions: CHO-K1, at 0.1 uM
row,SMILES,inhibition at 0.1 µM
1,CCCc1cccc(-c2cc(NC(=O)C3CNC(=O)C3(C)C)nn2-c2ccccc2)c1 (centres unmarked) [Example 398],7%
2,CCCc1cccc(-c2cc(NC(=O)C3CC(=O)NC3C)nn2-c2ccccc2)c1 (centres unmarked) [Example 405],29%
3,CC(C)(C)OC(=O)c1cccc(-c2cc(NC(=O)[C@@H]3CNC(=O)C3)nn2-c2ccccc2)c1 [Example 413],48%

# Second part, the compound after the results:
row,inhibition at 0.1 µM,SMILES
1,49%,C[C@@H](OCc1ccc(F)c(-c2cc(NC(=O)[C@@H]3CNC(=O)C3)nn2-c2ccccc2)c1)C(F)(F)F [Example 427]
2,31%,O=C1C[C@H](C(=O)Nc2cc(-c3cccc(CN4CCCC4)c3)n(-c3ccccc3)n2)CN1 [Example 428]
3,40%,CCCNC(=O)c1cccc(-c2cc(NC(=O)[C@@H]3CNC(=O)C3)nn2-c2ccccc2)c1 [Example 429]
4,8%,CCCN(C)C(=O)c1cccc(-c2cc(NC(=O)[C@@H]3CNC(=O)C3)nn2-c2ccccc2)c1 [Example 430]
5,21%,CC(C)NC(=O)c1cccc(-c2cc(NC(=O)[C@@H]3CNC(=O)C3)nn2-c2ccccc2)c1 [Example 431]
6,14%,CC(C)N(C)C(=O)c1cccc(-c2cc(NC(=O)[C@@H]3CNC(=O)C3)nn2-c2ccccc2)c1 [Example 432]
7,8%,O=C1C[C@H](C(=O)Nc2cc(-c3cccc(C(=O)NCC(F)(F)F)c3)n(-c3ccccc3)n2)CN1 [Example 433]
8,45%,O=C1C[C@H](C(=O)Nc2cc(-c3cccc(OC(F)(F)F)c3)n(-c3cccc(O)c3)n2)CN1 [Example 439]
